# Assay results published in patent publication US8648111B2, “N1-2-thiophene-2-ylethyl-N2-substituted biguanide derivate, preparation method thereof, and pharmaceutical composition containing the same as active ingredients” (Hanall Biopharma Co., Ltd., priority 2008, dated 2014).
# Where two headings read alike, the source gives them in different places.
# How the values were obtained:
# Type in all cases: cell-based
# HepG2 cells [1] = test: Measurement of gluconeogenesis inhibitory ability (14C-lactate, glucose formed in cells)
# Procedure: (§1) 2 mM metformin was used as a comparative compound for each of the plates (control group).
# HepG2 cells (ATCC: American Type Culture Collection) were cultured in 10% serum-containing high glucose media, transferred to no serum-containing low glucose media (DMEM (Gibco), FBS (Gibco)), and then treated with 100 μM of each of the compounds for 24 hours. Then, the cells were treated with 0.5 μCi ^14C-lactate (Amersham Pharmacia) and 10 mM L-lactate (Sigma), and cultured for 4 hours. After cultivation, the media were removed therefrom, and the cells were washed with PBS, treated with 0.1N NaOH and kept at room temperature for 1 hour. Then, the cells were neutralized with 1N HCl, and the content of glucose formed in the cells was measured with a liquid scintillation counter.
# A lower measurement value means an increased gluconeogenesis inhibitory ability.
# HepG2 cells [2] = test: Measurement of cholesterol synthesis inhibitory ability (cholesterol content in cell lysates, Amplex red)
# Procedure: as §1
# A cholesterol synthesis inhibitory ability, which is an important function of AMPK (AMP-activated protein kinase), was measured using HepG2 cells (ATCC: American Type Culture Collection) as a hepatic cell model according to the following procedure.
# The hepatic cell model HepG2 cells were cultured in 1% serum-containing media (DMEM (Gibco), FBS (Gibco)) for 24 hours, and then treated with 100 μM or 500 μM of each of the compounds prepared in Examples for 24 hours. Then, the cells were disrupted with a lysis solution (0.1 M potassium phosphate, pH 7.4, 0.05 M NaCl, 5 mM cholic acid, 0.1% Triton X-100 (Sigma)). To the disrupted cells was added the same volume of a reaction solution (2 U/mL of a cholesterol oxidizing agent, 2 U/mL of a peroxidase, 0.2 U/mL of a cholesterol esterase, and 300 μM of Amplex red as a fluorescent factor (Molecular Probe)), which was allowed to react at 37° C. for 30 minutes. After completion of the reaction, the content of cholesterol formed in the cell lysates was measured at a wavelength of 560/590 nm (ex/em) using a fluorescence microscope.
# A lower measurement value means an increased cholesterol synthesis inhibitory ability.
# HepG2 cells [3] = test: Measurement of triglyceride (triglyceride content in cell lysates, Amplex red)
# Procedure: as §1
# HepG2 cells (ATCC: American Type Culture Collection) were cultured in 1% serum-containing media (DMEM (Gibco), FBS (Gibco)) for 24 hours, and then treated with 100 μM or 500 μM of each of the compounds prepared in Examples for 24 hours. Then, the cells were disrupted with a lysis solution (0.1 M potassium phosphate, pH 7.4, 0.05 M NaCl, 5 mM cholic acid, 0.1% Triton X-100). […] After completion of the reaction, the content of triglyceride formed in the cell lysates was measured at a wavelength of 560/590 nm (ex/em) using a fluorescence microscope.
# A lower measurement value means an increased triglyceride synthesis inhibitory ability.
# C2C12 cells = test: Measurement of glucose absorption ability (3H-deoxy-glucose uptake with insulin); conditions: 100 uM compound with 1 μM insulin, 24 hours, differentiated C2C12, higher value = stronger, more than 200% counts as glucose absorption ability
# Procedure: as §1
# C2C12 cells (ATCC: American Type Culture Collection), a muscle cell model, were induced to differentiate into muscle cells in 2% bovine fetal serum-containing media (DMEM (Gibco), FBS (Gibco)) for 6 days. The C2C12 cells which differentiated into muscle cells were transferred to serum-free low glucose media (DMEM (Gibco), FBS (Gibco)), treated with 100 μM of each of the compounds, and then cultured with 1 μM of insulin for 24 hours. After cultivation, the cells were treated with 1 μCi ^3H-deoxy-glucose (Amersham Pharmacia) and 10 μM deoxy-glucose (Sigma) at 37° C. for 15 minutes. The media were removed therefrom, and the cells were washed twice with PBS (phosphate buffered saline). The washed cells were treated with 0.1N NaOH and neutralized with 1N HCl. The content of glucose absorbed into the cells was measured with a liquid scintillation counter.
# A higher measurement value means a stronger ability to reduce insulin resistance.
# [4] = 100 uM compound, 24 hours, HepG2, lower value = stronger gluconeogenesis inhibition
# [5] = 100 uM compound, 24 hours, HepG2, lower value = stronger cholesterol synthesis inhibition
# [6] = 500 uM compound, 24 hours, HepG2, lower value = stronger cholesterol synthesis inhibition
# [7] = 100 uM compound, 24 hours, HepG2, lower value = stronger triglyceride synthesis inhibition
# [8] = 500 uM compound, 24 hours, HepG2, lower value = stronger triglyceride synthesis inhibition
# [9] = 100 uM compound, 24 hours, HepG2, lower value = stronger gluconeogenesis inhibition, 100 µM
# [10] = 100 uM compound, 24 hours, HepG2, lower value = stronger gluconeogenesis inhibition, hydrochloride, 100 µM
# [11] = 100 uM compound, 24 hours, HepG2, lower value = stronger cholesterol synthesis inhibition, hydrochloride
# [12] = 100 uM compound, 24 hours, HepG2, lower value = stronger triglyceride synthesis inhibition, hydrochloride
Structure (SMILES),Gluconeogenesis inhibition (100 uM) Aver. (HepG2 cells [1]; [4]),Cholesterol (100 uM) Aver. (HepG2 cells [2]; [5]),Cholesterol (500 uM) Aver. (HepG2 cells [2]; [6]),Triglyceride (100 uM) Aver. (HepG2 cells [3]; [7]),Triglyceride (500 uM) Aver. (HepG2 cells [3]; [8]),Glucose absorption (100 uM) Aver. (C2C12 cells),other results
"Cc1cccc(N=C(NCCc2cccs2)NC(=N)N)c1.Cl [Example 27, N1-2-(thiophen-2-ylethyl)-N2-(3-methylphenyl) biguanide hydrochloride]",56.42,33.26,28.82,46.45,20.64,12.91%,
"Cl.N=C(N)NC(=Nc1ccc(-c2ccccc2)cc1)NCCc1cccs1 [Example 35, N1-2-(thiophen-2-ylethyl)-N2-(4-phenylphenyl) biguanide hydrochloride]",109.62,28.27,30.49,18.94,14.92,35.00%,
"Cl.N=C(N)NC(=Nc1ccc(Oc2ccccc2)cc1)NCCc1cccs1 [Example 36, N1-2-(thiophen-2-ylethyl)-N2-(4-phenoxyphenyl) biguanide hydrochloride]",1.54,31.22,34.74,20.95,17.89,4.50%,
"Cl.N=C(N)NC(=Nc1ccc(Br)cc1)NCCc1cccs1 [Example 33, N1-2-(thiophen-2-ylethyl)-N2-(4-bromophenyl) biguanide hydrochloride]",17.03,24.52,31.66,29.12,27.48,14.24%,
"CCc1ccccc1N=C(NCCc1cccs1)NC(=N)N.Cl [Example 9, N1-2-(thiophen-2-ylethyl)-N2-2-ethylphenyl biguanide hydrochloride]",74.23,39.25,7.55,74.99,19.51,252.6%,
"Cl.N=C(N)NC(=NCC1CC1)NCCc1cccs1 [Example 43, N1-2-(thiophen-2-ylethyl)-N2-cyclopropylmethyl biguanide hydrochloride]",99.28,88.47,78.80,90.52,79.92,196.03%,
"CN=C(NCCc1cccs1)NC(=N)N.Cl [Example 10, N1-2-(thiophen-2-ylethyl)-N2-methyl biguanide hydrochloride (isomer)]",,52.29,,76.16,,6.91%,Gluconeogenesis inhibition (100 uM) Aver. (HepG2 cells [1]; [9]): 5.72
"Cl.N=C(N)NC(=Nc1cc(Cl)cc(Cl)c1)NCCc1cccs1 [Example 39, N1-2-(thiophen-2-ylethyl)-N2-(3,5-dichlorophenyl) biguanide hydrochloride]",13.04,69.65,61.03,73.50,72.66,188.26%,
"C=CCN=C(NCCc1cccs1)NC(=N)N.Cl [Example 44, N1-2-(thiophen-2-ylethyl)-N2-allyl biguanide hydrochloride]",,,,,,87.78%,Gluconeogenesis inhibition (100 uM) Aver. (HepG2 cells [1]): 77.80; Cholesterol (100 uM) Aver. (HepG2 cells [2]): 85.73; Cholesterol (500 uM) Aver. (HepG2 cells [2]): 82.40; Triglyceride (100 uM) Aver. (HepG2 cells [3]): 96.99; Triglyceride (500 uM) Aver. (HepG2 cells [3]): 74.60
"CN=C(NCCc1cccs1)NC(=N)N.Cl [Example 11, N1-2-(thiophen-2-ylethyl)-N2-methyl biguanide hydrochloride (isomer)]",,71.14,,74.98,,321.21%,Gluconeogenesis inhibition (100 uM) Aver. (HepG2 cells [1]; [9]): 25.03
"COc1ccc(CN=C(NCCc2cccs2)NC(=N)N)cc1.Cl [Example 38, N1-2-(thiophen-2-ylethyl)-N2-(4-methoxybenzyl) biguanide hydrochloride]",120.13,80.35,44.72,100.89,84.10,195.22%,
"COc1ccc(N=C(NCCc2cccs2)NC(=N)N)cc1.Cl [Example 15, N1-2-(thiophen-2-ylethyl)-N2-(4-methoxy)phenyl biguanide hydrochloride]",,,,,,,"Gluconeogenesis inhibition (100 uM) Aver. (HepG2 cells [1]; [10]): 86.69; Cholesterol (100 uM) Aver. (HepG2 cells [2]; [11]): 67.3; Cholesterol (500 uM) Aver. (HepG2 cells [2]; 500 uM compound, 24 hours, HepG2, lower value = stronger cholesterol synthesis inhibition, hydrochloride): 39.7; Triglyceride (100 uM) Aver. (HepG2 cells [3]; [12]): 76.6; Triglyceride (500 uM) Aver. (HepG2 cells [3]; 500 uM compound, 24 hours, HepG2, lower value = stronger triglyceride synthesis inhibition, hydrochloride): 41.4; Glucose absorption (100 uM) Aver. (C2C12 cells; hydrochloride): 124.3%"
"Cl.N=C(N)NC(=Nc1ccc(F)cc1)NCCc1cccs1 [Example 18, N1-2-(thiophen-2-ylethyl)-N2-(4-fluorophenyl) biguanide hydrochloride]",86.69,50.3,23.4,67.0,39.5,88.16%,
"CN=C(NCCc1cccs1)NC(=N)N.Cl [Example 5, N1-2-(thiophen-2-ylethyl)-N2-methyl biguanide hydrochloride]",,,41.36,,41.59,,Gluconeogenesis inhibition (100 uM) Aver. (HepG2 cells [1]; [10]): 58.50; Cholesterol (100 uM) Aver. (HepG2 cells [2]; [11]): 49.29; Triglyceride (100 uM) Aver. (HepG2 cells [3]; [12]): 65.03; Glucose absorption (100 uM) Aver. (C2C12 cells; hydrochloride): 350.4%
"CN=C(NCCc1cccs1)NC(=N)N.Cl [Example 12, N1-2-(thiophen-2-ylethyl)-N2-methyl biguanide hydrochloride (isomer)]",,69.94,,67.43,,221.61%,Gluconeogenesis inhibition (100 uM) Aver. (HepG2 cells [1]; [9]): 13.05
